Experimental data reported in publication PMC6370995, “Phase I study of PF‐04895162, a Kv7 channel opener, reveals unexpected hepatotoxicity in healthy subjects, but not rats or monkeys: clinical evidence of disrupted bile acid homeostasis” (Pharmacology Research & Perspectives, 2019).
Like-named read-outs stand apart in the source and are kept apart here.

Columns and labels:
[1] = tested on: healthy subjects; assay: Biomarkers of liver injury in residual plasma PK samples (miRNA122, total and fractionated bile acids); type: in vivo, human; settings: 300 mg BID
Procedure: Methodology for the following in vitro assays and biomarker determinations were as follows: THLE/HepG2 72 hour cytotoxicity assays based on ATP depletion;14 mitochondrial functional assessment based on state 3/4 respiration determination in the presence of glutamate/malate15, 16 or fatty acid oxidation inhibition using palmitate;17 BSEP inhibition in vesicles using tritium labeled taurocholic acid (TCA);18 human hepatocyte imaging assay determination of cell loss, mitochondrial membrane permeability, glutathione content, and production of reactive oxygen species;19 miRNA‐122 determination using QuantiGene 2.0 miRNA;20 human multidrug resistance protein 3 inhibition/activation (MDR3, encoded by ABCB4) was determined at Biotranex based on biotransformation of d 9‐choline to d 9‐phosphatidylcholine in human hepatocytes;21 and fractionated bile acid determinations were conducted by LC‐MS/MS methodology.22 These various assays have been published in detail and used by us in previous investigative works.2, 3, 21 Examination of human sodium/taurocholate cotransporting polypeptide (NTCP, encoded by SLC10A1) was determined based on uptake of tritium labeled TCA in CHO cells and human multidrug resistance‐associated protein 3/4 (MRP3/4, encoded by ABCC3/4) transporter inhibition in vesicles obtained from HEK293 cells using tritium labeled estradiol 17 β‐D‐glucuronide and dehydroepiandrosterone sulfate as substrates, respectively.
Three of eight treated healthy subjects consented for additional analyses of residual plasma PK samples for biomarkers of liver injury (e.g., miRNA122, total, and fractionated bile acids).

[2] = ADME of single oral dose of 14C-labeled parent in male rats; type: in vivo, rat; settings: single oral dose (target 15 mg/kg) 14C-labeled
Text: A summary of liver effects along with a detailed synopsis of each nonclinical study that was used to support the Investigational New Drug Application filing along with longer term studies can be found in the supplemental information associated with this article. In brief, this compound advanced into clinical studies without any histopathological evidence of liver injury or reproducible transaminase elevations in rats and monkeys. The addition of total bile acid analysis in nonclinical safety assessment studies, although germane to this investigation retrospectively, is not routine.26 Absorption, distribution, metabolism, and excretion of parent and metabolites were examined in albino and pigmented male rats after administration of a single oral dose (target 15 mg/kg) of ^14C‐labeled parent. Elimination of radioactivity occurred mostly within the first 24 hours after dosing with approximately 71 and 22% of the administered dose excreted in feces and urine, respectively. An equivalent human study was not performed.

[3] = biological target: T1, MDR3 (Homo sapiens, UniProt P21439); assay: MDR3 inhibition/activation in human hepatocytes (d9-choline to d9-phosphatidylcholine); type: cell-based; settings: 200 μmol/L, N = 3
T1 construct: biotransformation of d 9‐choline to d 9‐phosphatidylcholine in human hepatocytes; host or cells: human hepatocytes
Text: […]

[4] = tested on: cynomolgus monkeys; assay: 9-Month Oral Toxicity Study in Cynomolgus Monkeys; type: in vivo, cynomolgus monkey
Procedure: (§1) A 28-day nasogastric toxicity study was conducted in cynomolgus monkeys at up to 100 mg/kg/day and a 9-month oral toxicity study with a 3-month interim sacrifice was conducted in cynomolgus monkeys at up to 100 mg/kg/day.

[5] = 9-Month Oral Toxicity Study in Cynomolgus Monkeys; type: in vivo, cynomolgus monkey; settings: cynomolgus monkey, plasma, oral, 100 mg/kg/day
Procedure: as §1

[6] = tested on: Sprague-Dawley rats; assay: 6-Month Oral Toxicity Study in Sprague Dawley Rats; type: in vivo, rat
Procedure: (§2) In the longer-term studies Sprague-Dawley rats were administered PF-04895162 once daily for 28 days or 6 months at doses up to 100 mg/kg/day. […] The drug was well absorbed into the systemic circulation of male and female rats following oral administration for 6 months.

[7] = 6-Month Oral Toxicity Study in Sprague Dawley Rats; type: in vivo, rat; settings: Sprague-Dawley, rat, plasma, oral
Procedure: as §2

[8] = tested on: liver mitochondrial function; assay: mitochondrial state 3/4 respiration in the presence of glutamate/malate; type: biochemical; settings: N = 2
Text: […]

[9] = tested on: cynomolgus monkeys; assay: Escalating Dose Range-Finding and Maximum Tolerated Dose Study in Cynomolgus Monkeys; type: in vivo, cynomolgus monkey

T1 sequence (P21439 whole entry): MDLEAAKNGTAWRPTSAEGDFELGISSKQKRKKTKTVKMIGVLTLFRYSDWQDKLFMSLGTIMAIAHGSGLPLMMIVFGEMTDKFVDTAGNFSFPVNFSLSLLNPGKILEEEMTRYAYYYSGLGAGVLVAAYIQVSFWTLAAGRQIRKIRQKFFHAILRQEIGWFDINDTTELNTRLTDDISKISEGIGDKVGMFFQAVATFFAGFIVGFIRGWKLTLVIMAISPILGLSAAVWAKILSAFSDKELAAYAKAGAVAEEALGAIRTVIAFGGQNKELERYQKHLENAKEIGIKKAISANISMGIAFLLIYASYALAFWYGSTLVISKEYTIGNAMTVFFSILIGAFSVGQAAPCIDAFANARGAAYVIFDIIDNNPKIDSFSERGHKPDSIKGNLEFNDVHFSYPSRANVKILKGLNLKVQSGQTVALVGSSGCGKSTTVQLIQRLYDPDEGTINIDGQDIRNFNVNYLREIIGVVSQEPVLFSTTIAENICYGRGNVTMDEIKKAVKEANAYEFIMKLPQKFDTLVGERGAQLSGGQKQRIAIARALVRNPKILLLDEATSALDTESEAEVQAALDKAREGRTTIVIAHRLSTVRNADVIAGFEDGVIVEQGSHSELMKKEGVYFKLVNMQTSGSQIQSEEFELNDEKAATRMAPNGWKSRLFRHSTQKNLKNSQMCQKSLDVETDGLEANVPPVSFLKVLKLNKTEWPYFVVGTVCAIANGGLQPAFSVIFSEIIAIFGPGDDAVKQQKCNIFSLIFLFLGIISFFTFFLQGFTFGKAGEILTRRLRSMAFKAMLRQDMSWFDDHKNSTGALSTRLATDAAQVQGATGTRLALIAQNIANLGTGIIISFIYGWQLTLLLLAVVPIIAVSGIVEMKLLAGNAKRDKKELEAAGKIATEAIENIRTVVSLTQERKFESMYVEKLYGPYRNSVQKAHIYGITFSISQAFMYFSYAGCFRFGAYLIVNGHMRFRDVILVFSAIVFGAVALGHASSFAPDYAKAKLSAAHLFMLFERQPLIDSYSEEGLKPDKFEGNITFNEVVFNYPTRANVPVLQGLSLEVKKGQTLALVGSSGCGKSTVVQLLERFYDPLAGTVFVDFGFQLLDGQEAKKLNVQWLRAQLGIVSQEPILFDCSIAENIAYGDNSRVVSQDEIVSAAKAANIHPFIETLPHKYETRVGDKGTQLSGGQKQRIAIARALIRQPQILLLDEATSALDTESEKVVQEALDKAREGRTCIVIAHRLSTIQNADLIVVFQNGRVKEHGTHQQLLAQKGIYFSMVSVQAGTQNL

In the case of O=C(Cc1ccc(F)cc1)Nn1c(C2CC2)nc2cc(F)ccc2c1=O [PF‐04895162, N‐(2‐cyclopropyl‐7‐fluoro‐4‐oxoquinazolin‐3(4H)‐yl)‐2‐(4‐fluorophenyl)ethanamide], the “plasma miRNA122, Subject 8” value ([1]; Period 3) is reported as “elevated (>ULN) by Day 5”, the “fasting total bile acid levels of treated subjects” value ([1]; Period 3, normal range <10 μmol/L) is reported as “within the normal range” and the “hydrophobicity index of serum bile acids, Subject 6” value ([1]; Day 7, AUC 0-12 h) is reported as 0.47. For the same compound, the “hydrophobicity index of serum bile acids, Subject 8” value ([1]; Day 7, AUC 0-12 h) was 0.40, the “hydrophobicity index of serum bile acids, Subject 10” value ([1]; Day 7, AUC 0-12 h) was 0.45 and the “administered dose excreted in feces” value [2] was “approximately 71%”. For the same compound, the “administered dose excreted in urine” value [2] was about 22%, the “effect on MDR3 activity” value [3] was “stimulation” and the “hematology, coagulation, clinical chemistry, macroscopic and microscopic pathology” value ([4]; 9 months, up to 100 mg/kg/day) was “No effect of treatment”. The “body weights, body temperatures, hematology, coagulation, clinical chemistry, ophthalmoscopic, electrocardiographic examinations” value ([4]; 10, 30 and 100 mg/kg/day) was “No effect of treatment”, the liver weights ([4]; males at 30 and 100 mg/kg/day, females at 100 mg/kg/day, after 9 months) was “increases in liver weights” and the mortality ([4]; one female at 100 mg/kg/day) was “found dead on Day 45”. For the same compound, the clinical findings ([4]; sporadically in a few males and females at 100 mg/kg/day) was “Gross tremors and distended abdomens”, the Cmax ([5]; both sexes, after 9 months, males and females, read-out: total Cmax) was about 29000 ng/mL and the Cmax ([5]; studies >1 month in duration, read-out: total Cmax concentrations in the monkey) was 81.6 µM. For the same compound, the liver weights ([6]; 6 months, up to 100 mg/kg/day) was “Increased liver weights”, the deaths ([6]; 10, 30 and 100 mg/kg/day, 6 months) was “no test-article related deaths” and the “accumulation of parent drug / induction of drug metabolizing enzymes” value ([6]; by the end of the 6 month study) was “no evidence of accumulation of parent drug or any apparent induction of drug metabolizing enzymes”. For the same compound, the “Microscopic changes in liver” value ([6]; females at 30 mg/kg/day and males and females at 100 mg/kg/day for 6 months) was “centrilobular hypertrophy”, the body temperature ([6]; females only, Days 1 and 91 at 30 and 100 mg/kg/day) was “mild decrease in body temperature” and the Mean food consumption ([6]; males and females at 100 mg/kg/day, entire 6-month period) was “less compared to controls”. The clinical chemistry changes ([6]; males and/or females at 30 and/or 100 mg/kg/day) was “higher phosphorus, potassium, bilirubin, and cholesterol values and lower chloride and glucose levels”, the Mean body weights ([6]; males at 30 and 100 mg/kg/day, females at 100 mg/kg/day) was “lower compared to controls” and the transaminases ([6]; once daily for 6 months, up to 100 mg/kg/day) was “No transaminase elevations”. For the same compound, the Cmax ([7]; both sexes, 100 mg/kg/day, studies >1 month in duration, read-out: total Cmax concentrations in the rat (male-female)) was 6.9 to 15.1 µM, the Cmax ([7]; female, Day 1, 100 mg/kg/day, read-out: Total Cmax, female rats) was 5350 ng/mL and the Cmax ([7]; male, Day 1, 100 mg/kg/day, read-out: Total Cmax, male rats) was 2460 ng/mL. For the same compound, the IC50 ([8]; read-out: IC50 for inhibition of glutamate/malate respiration) was about 10 µM, the IC50 ([8]; read-out: IC50 for uncoupling activity) was over 100 µM and the “gross findings at necropsy, organ weights, liver histopathology, Dosing Phase 1” value ([9]; 25, 50, 100 and 200 mg/kg) was “no other apparent effects of treatment”. For the same compound, the “clinical signs, Dosing Phase 2” value ([9]; morning following dosing at 200 mg/kg/day, all 4 treated monkeys) was “hyperactivity, ataxia, tremors, and dilated pupils” and the “clinical observation, Dosing Phase 1” value ([9]; single escalating NG doses, most prevalently at 100 and 200 mg/kg) was “Post-dosing vomitus”.
